This note sets out measurements from US20220389003A1, “4-SUBSTITUTED INDOLE AND INDAZOLE SULFONAMIDO DERIVATIVES AS PARG INHIBITORS” (IDEAYA BIOSCIENCES, INC., priority 2019, published 2022).

Where two headings read alike, the source gives them in different places.

Experiment [1] concerns the target T1, PARG (Homo sapiens, UniProt Q86W56). As to the kind of experiment: Inhibition of PARG cellular assay (PAR foci in HeLa cells after MMS). It is filed as cell-based. Set-up: endogenous in cells; host or cells: HeLa. To be noted: compound 1 h then MMS 1 h. On the procedure: The ability of the compounds disclosed herein to inhibit PARG was determined as described below. Briefly, after treating HeLa cells with the compounds of the disclosure for 1 h, followed by treatment with DNA alkylating agent methylmethanesulfonate (MMS) for an additional 1 h, the cells were fixed in 3.7% formaldehyde. The cells were permeabilized in 0.5% Triton-X100, blocked in 5% goat serum, and incubated with mouse monoclonal antibody against poly (ADP) ribose (PAR) polymer overnight at 4° C. The cells were washed and incubated with an Alexafluor 488-linked secondary antibody together with a nuclear stain (Hoechst 33342) for an hour at room temperature. After washing, images of the cells were captured and analyzed on a high content imaging microscope and software. Two measurement of PAR chain were quantified with the mean intensity over background of the nuclear foci (fluorescent signal at 488 nm range 0.3-2.0 μm foci) quantified as PAR foci (PAR Foci IC50). The cells with a PAR foci signal >1.3 was considered as positive (PAR % positive IC50), and the percentage positive cells are quantified.

For experiment [2], the target named is T1, PARG. As to the kind of experiment: Inhibition of PARG enzymatic assay (TR-FRET enzymatic IC50 assay). Set-up: purchased Peak Proteins. To be noted: hPARG 250 pM, biotinylated-PARylated PARP substrate 30 nM. It is filed as biochemical. On the procedure:
PARG enzyme was incubated with compound or vehicle (DMSO) and the biotinylated-PARylated PARP substrate in a microtiter plate. After adding detection antibody and streptavidin-europium, and then incubating, the plate was read for fluorescence intensity. The low control (DMSO) with low fluorescence intensity represents no inhibition of enzymatic reaction while the high control (no enzyme) with high fluorescence intensity represents full inhibition of enzymatic reaction.
• PARG • hPARG: 250 pM, His-tagged, Peak Proteins, 0.96 mg/mL (8.58 μM) • Substrate: 30 nM • Reaction time: 70 minutes • Substrate: hPARP1, His- and TEV-tagged, Peak Proteins, 14 μM • Detection Antibody: anti-His monoclonal antibody-ULight, Perkin Elmer catalog #TRF0105-M • Streptavidin-Europium: Perkin Elmer catalog #AD0062 • Assay buffer: 50 mM Tris-HCl pH 7.4, 50 mM KCl, 3 mM EDTA, 0.4 mM EGTA, 1 mM DTT, 0.01% Tween 20, 0.01% BSA • Temperature: 23° C. • Total volume: 20 μL
• 0% inhibition control: DMSO • 100% inhibition control: No enzyme
• 1. Transfer 5 μL of 3× final concentration of test compounds or DMSO to the appropriate wells of a microtiter plate. • 2. Centrifuge the plate at 1000 rpm for 1 minute. • 3. Transfer 5 μL of 3× final concentration of enzyme in assay buffer or assay buffer alone to the appropriate wells. • 4. Centrifuge the plate at 1000 rpm for 1 minute. • 5. Incubate the plate at room temperature for 1 hour. • 6. Transfer 5 μL of 3× substrate in assay buffer to all the test wells. • 7. Centrifuge the plate at 1000 rpm for 1 minute. • 8. Incubate the plate at room temperature for 10 minutes. • 9. Transfer 5 μL of 3× mixture of detection antibody and streptavidin-europium in assay buffer to all the test wells. • 10. Centrifuge the plate at 1000 rpm for 1 minute. • 11. Incubate the plate at room temperature for 1 hour. • 12. Read the plate on a plate reader (e.g., Infinite M1000).

Experiment [3] has as its system HCC1806-XRCC1 KD (knock down) cells. Nature of the experiment: Cellular viability assay (Cell Titer-Glo). It is filed as cell-based. To be noted: HCC1806-shXRCC1 cells, 4 days of incubation, read-out: PARGi cell viability. On the procedure:
HCC1806-XRCC1 KD (knock down) cells were plated at 2000 cells/well in 96-well white plates with clear flat bottom. After 24 hours, the compounds of the disclosure were added starting at 30 μM for a 9-point dose response curve at 1:3 dilution. The compounds of the disclosure were added by Tecan digital dispenser excluding the outermost wells of the plate. All treatments were done in duplicates. After 4 days of incubation, 50 ul of Cell Titer-Glo (Promega) was added per well. After incubation with the reagent for 15 minutes, luminescence was read using a plate reader (TECAN). Average values of DMSO treated wells in a plate was calculated. All data points were normalized to that of the average DMSO value. The % of control for each sample compared to DMSO treated control samples. Curves are fit as % of control vs. log [compound concentration] using a 4 parameter inhibition model (Levenberg-Marquardt algorithm):
Fit=(A+((B−A)/(1+((C/x)^D))))

T1 sequence (Q86W56 whole entry): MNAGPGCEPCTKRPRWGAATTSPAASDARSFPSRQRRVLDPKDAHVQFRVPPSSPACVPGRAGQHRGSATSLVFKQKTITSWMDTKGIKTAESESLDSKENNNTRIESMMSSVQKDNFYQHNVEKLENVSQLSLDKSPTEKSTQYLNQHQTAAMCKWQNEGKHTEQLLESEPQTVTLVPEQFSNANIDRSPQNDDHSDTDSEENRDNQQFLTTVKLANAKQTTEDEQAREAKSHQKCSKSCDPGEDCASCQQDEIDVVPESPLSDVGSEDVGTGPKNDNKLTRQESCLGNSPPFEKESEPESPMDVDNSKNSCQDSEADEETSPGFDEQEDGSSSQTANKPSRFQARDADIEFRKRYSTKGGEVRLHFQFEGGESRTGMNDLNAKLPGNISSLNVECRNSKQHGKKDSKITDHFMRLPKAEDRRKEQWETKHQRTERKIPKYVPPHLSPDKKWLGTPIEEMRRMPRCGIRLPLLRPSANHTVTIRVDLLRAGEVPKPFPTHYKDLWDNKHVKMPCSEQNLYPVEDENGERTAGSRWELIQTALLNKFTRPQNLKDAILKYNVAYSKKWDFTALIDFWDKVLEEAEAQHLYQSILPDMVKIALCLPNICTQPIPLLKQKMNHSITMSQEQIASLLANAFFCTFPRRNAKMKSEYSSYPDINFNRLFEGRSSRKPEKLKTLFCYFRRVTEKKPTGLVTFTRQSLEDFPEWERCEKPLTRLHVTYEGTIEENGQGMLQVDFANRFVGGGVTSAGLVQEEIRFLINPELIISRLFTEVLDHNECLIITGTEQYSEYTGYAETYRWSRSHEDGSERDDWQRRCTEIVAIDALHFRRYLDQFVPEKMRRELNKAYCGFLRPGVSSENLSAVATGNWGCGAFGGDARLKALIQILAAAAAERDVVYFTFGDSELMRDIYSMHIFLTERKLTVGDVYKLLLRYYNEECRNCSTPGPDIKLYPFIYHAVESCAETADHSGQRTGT

Take `CN1CC2CN(c3cc(S(=O)(=O)NC4(C#N)CC4)cc4c3cnn4-c3nnc(C(F)F)s3)CCN2C1=O` (single isomer, unassigned) [Example 71, 1-[({4-(8-methyl-7-oxo-3,6,8-triazabicyclo[4.3.0]non-3-yl)-1-[5-(difluoromethyl)-(1,3,4-thiadiazol-2-yl)]-1H-indazol-6-yl}sulfonyl)amino]cyclopropane carbonitrile]: the IC50 against PARG [1] was 0.1 to 0.3 µM; against PARG [2], at most 0.1 µM; in experiment [3] (96 h), 1 to 10 µM.

As for `CN1CC2CN(c3cc(S(=O)(=O)NC4(C#N)CC4)cc4c3cnn4-c3nnc(C(F)F)s3)CCN2C1=O` (single isomer, unassigned) [Example 72, 1-[({4-(8-methyl-7-oxo-3,6,8-triazabicyclo[4.3.0]non-3-yl)-1-[5-(difluoromethyl)-(1,3,4-thiadiazol-2-yl)]-1H-indazol-6-yl}sulfonyl)amino]cyclopropane carbonitrile], the IC50 was 0.1 to 0.3 µM against PARG [1], at most 0.1 µM on PARG [2] and 1 to 10 µM in experiment [3].

On to `N#CC1(NS(=O)(=O)c2cc(-c3ccccc3)c3cnn(-c4nnc(C(F)F)s4)c3c2)CC1` [Example 1, 1-[({1-[5-(difluoromethyl)(1,3,4-thiadiazol-2-yl)]-4-phenyl-1H-indazol-6-yl}sulfonyl)amino]cyclopropanecarbonitrile], for which the IC50 lay within 1 to 10 µM at PARG [1], 1 to 10 µM against PARG [2] and 20 to 30 µM in experiment [3] (96 h).

Turning to `Cn1cc(-c2cc(S(=O)(=O)NC3(C#N)CC3)cc3c2cnn3-c2nnc(C(F)F)s2)ccc1=O` [Example 5, N-(1-cyanocyclopropyl)-1-(5-(difluoromethyl)-1,3,4-thiadiazol-2-yl)-4-(1-methyl-6-oxo-1,6-dihydropyridin-3-yl)-1H-indazole-6-sulfonamide], the IC50 against PARG [1] was 0.3 to 1 µM; against PARG [2], at most 0.1 µM; in experiment [3] (96 h), 20 to 30 µM.

Turning to `N#CC1(NS(=O)(=O)c2cc(C3CC3)c3cnn(-c4nnc(C(F)F)s4)c3c2)CC1` [Example 6, 1-[({1-[5-(difluoromethyl)(1,3,4-thiadiazol-2-yl)]-4-cyclopropyl-1H-indazol-6-yl}sulfonyl)amino]cyclopropanecarbonitrile], the IC50 on PARG [1] is 1 to 10 µM; against PARG [2], 1 to 10 µM; in experiment [3] (96 h), 20 to 30 µM.

For `N#CC1(NS(=O)(=O)c2cc(C3=CCC4(CC3)COC4)c3cnn(-c4nnc(C(F)F)s4)c3c2)CC1` [Example 7, 1-[({1-[5-(difluoromethyl)(1,3,4-thiadiazol-2-yl)]-4-(2-oxaspiro[3.5]non-6-en-7-yl)-1H-indazol-6-yl}sulfonyl)amino]cyclopropanecarbonitrile], the IC50 against PARG [1] was 0.3 to 1 µM; against PARG [2], 0.3 to 1 µM; in experiment [3] (96 h), 1 to 10 µM.

For `N#CC1(NS(=O)(=O)c2cc(C3CCC4(CC3)COC4)c3cnn(-c4nnc(C(F)F)s4)c3c2)CC1` [Example 8, 1-[({1-[5-(difluoromethyl)(1,3,4-thiadiazol-2-yl)]-4-(2-oxaspiro[3.5]non-7-yl)-1H-indazol-6-yl}sulfonyl)amino]cyclopropanecarbonitrile], the results for the IC50 (against PARG [1]; on PARG [2]; in experiment [3] (96 h)) were at most 0.1 µM, 0.1 to 0.3 µM and 1 to 10 µM, respectively.

As to `N#CC1(NS(=O)(=O)c2cc(-c3ccccn3)c3cnn(-c4nnc(C(F)F)s4)c3c2)CC1` [Example 14, 1-[({1-[5-(difluoromethyl)(1,3,4-thiadiazol-2-yl)]-4-(2-pyridyl)-1H-indazol-6-yl}sulfonyl)amino]cyclopropanecarbonitrile], the IC50 lay within 1 to 10 µM against PARG [1], 0.3 to 1 µM at PARG [2] and 10 to 20 µM in experiment [3] (96 h).

In the case of `N#CC1(NS(=O)(=O)c2cc(-c3ccncn3)c3cnn(-c4nnc(C(F)F)s4)c3c2)CC1` [Example 15, 1-[({1-[5-(difluoromethyl)(1,3,4-thiadiazol-2-yl)]-4-pyrimidin-4-yl-1H-indazol-6-yl}sulfonyl)amino]cyclopropanecarbonitrile], the IC50 on PARG [1] is 0.3 to 1 µM; at PARG [2], at most 0.1 µM; in experiment [3] (96 h) it was 1 to 10 µM.

As to `CC(C)C(=O)N1[C@@H]2CC[C@H]1CN(c1cc(S(=O)(=O)NC3(C#N)CC3)cc3c1cnn3-c1nnc(C(F)F)s1)C2` [Example 37, 1-[({4-[(1S,5R)-8-(2-methylpropanoyl)-3,8-diazabicyclo[3.2.1]oct-3-yl]-1-[5-(difluoromethyl)(1,3,4-thiadiazol-2-yl)]-1H-indazol-6-yl}sulfonyl)amino]cyclopropane carbonitrile], the IC50 was at most 0.1 µM against PARG [1] and 1 to 10 µM in experiment [3] (96 h).

On to `N#CC1(NS(=O)(=O)c2cc(N3CCN(C=O)CC3)c3cnn(-c4nnc(C(F)F)s4)c3c2)CC1` [Example 49, 1-[({1-[5-(difluoromethyl)(1,3,4-thiadiazol-2-yl)]-4-(4-formylpiperazinyl)-1H-indazol-6-yl}sulfonyl)amino]cyclopropanecarbonitrile], for which the IC50 on PARG [1] fell in the range of 0.3 to 1 µM; in experiment [3] (96 h) it was 1 to 10 µM.

For the compound `CNC(=O)C1CN(c2cc(S(=O)(=O)NC3(C#N)CC3)cc3c2cnn3-c2nnc(C(F)F)s2)C1` [Example 75, 1-(6-(N-(1-cyanocyclopropyl)sulfamoyl)-1-(5-(difluoromethyl)-1,3,4-thiadiazol-2-yl)-1H-indazol-4-yl)-N-methylazetidine-3-carboxamide], the figures for the IC50 (against PARG [2]; in experiment [3] (96 h)) were 0.3 to 1 µM and 20 to 30 µM, respectively.

On to `CN(C)CCN(C)C(=O)N1CCN(c2cc(S(=O)(=O)NC3(C#N)CC3)cc3c2cnn3-c2nnc(C(F)F)s2)CC1` [Example 76, [4-(1-[5-(difluoromethyl)(1,3,4-thiadiazol-2-yl)]-6-{[(cyanocyclopropyl)amino]sulfonyl}(1H-indazol-4-yl))piperazinyl]-N-[2-(dimethylamino)ethyl]-N-methylcarboxamide], for which the IC50 on PARG [2] was at most 0.1 µM; in experiment [3] (96 h), 1 to 10 µM.

Regarding `N#CC1(NS(=O)(=O)c2cc(N3CCN(C(=O)C4CCC4)CC3)c3cnn(-c4nnc(C(F)F)s4)c3c2)CC1` [Example 81, 1-[({1-[5-(difluoromethyl)(1,3,4-thiadiazol-2-yl)]-4-[4-(cyclobutylcarbonyl)piperazinyl]-1H-indazol-6-yl}sulfonyl)amino]cyclopropanecarbonitrile], the figures for the IC50 (against PARG [1]; in experiment [3] (96 h)) were at most 0.1 µM and below 1 µM, respectively.

Consider `CN1CC2(CCN(c3cc(S(=O)(=O)NC4(C#N)CC4)cc4c3cnn4-c3nnc(C(F)F)s3)CC2)C1` [Example 92, 1-[({1-[5-(difluoromethyl)(1,3,4-thiadiazol-2-yl)]-4-(2-methyl-2,7-diazaspiro-[3.5]non-7-yl)-1H-indazol-6-yl}sulfonyl)amino]cyclopropanecarbonitrile], for which the figures for the IC50 (on PARG [2]; in experiment [3] (96 h)) were 0.3 to 1 µM and 10 to 20 µM, respectively.

Turning to “[4-(1-[5-(difluoromethyl)(1,3,4-thiadiazol-2-yl)]-6-{[(cyanocyclopropyl)amino]sulfonyl}(1H-indazol-4-yl))(1,4-diazaperhydroepinyl)]-N-methylcarboxamide [Example 31]”, the IC50 at PARG [2] is 0.3 to 1 µM; in experiment [3] it was 10 to 20 µM.
